Laboratory results taken from patent US10766869B2, “Triazoles for the treatment of demyelinating dieases” (Vertex Pharmaceuticals Incorporated, priority 2015, dated 2020).
Read-outs that look alike come from different tables or passages of the source.

System: primary rat mixed cortical cells
Assay: In vitro myelination assay (MBP positive myelin strands, fold myelin pixels above background)
Format: cell-based
Conditions: Rattus norvegicus; for fold induction at 1 µM: 1.0 μM compound; for fold induction at 10 µM: 10.0 μM compound
Summary of the method: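 Mixed cortical culture, P1 rat, 87,500-95,000 cells/well; compound present from seeding, refreshed days 6 and 10; 14 d, 37 °C, 5% CO2. Day 14: PFA fix, anti-MBP + Hoechst. Read-out: fold MBP myelin pixels over untreated, tested at 1.0 and 10.0 μM.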

[1] = read-out: Fold myelin pixels above background relative to baseline of no added compound
[2] = relative to baseline of no added compound, read-out: Fold myelin pixels above background, 1.0 μM
[3] = relative to baseline of no added compound, read-out: Fold myelin pixels above background, 10.0 μM
[4] = relative to baseline of no added compound, read-out: Fold myelin pixels above background

Compound	fold induction at 1 µM [2]	fold induction at 10 µM [3]	fold induction at 1 µM [4]	fold induction at 10 µM [4]	further results
Cc1cc(Nc2ncn(-c3cc(F)cc(F)c3)n2)cc(NC2CC(N3CCOCC3)C2)c1 (stereo not drawn) [Compound 797, N3-[1-(3,5-difluorophenyl)-1,2,4-triazol-3-yl]-5-methyl-N1-(3-morpholinocyclobutyl)benzene-1,3-diamine]	–	–	–	–	fold induction at 1 µM [1]: 1 to 10; fold induction at 10 µM [1]: ≤ 1
Cc1cc(Nc2ncn(-c3ccccc3)n2)cc(N2CCN(C)CC2)n1 [Compound 156, 2-methyl-6-(4-methylpiperazin-1-yl)-N-(1-phenyl-1,2,4-triazol-3-yl)pyridin-4-amine]	1000 to 10000	≤ 1	–	–	–
Cc1cc(Nc2ncn(-c3cc(F)cc(F)c3)n2)nc(N2CC(N3CCOCC3)C2)c1 [Compound 537, N-[1-(3,5-difluorophenyl)-1,2,4-triazol-3-yl]-4-methyl-6-(3-morpholinoazetidin-1-yl)pyridin-2-amine]	–	–	1 to 10	≤ 1	–
Cc1cc(Nc2ncn(-c3cc(F)cc(F)c3)n2)cc(N2CCC(O)CC2)c1 [Compound 238, 1-[3-[[1-(3,5-difluorophenyl)-1,2,4-triazol-3-yl]amino]-5-methyl-phenyl]piperidin-4-ol]	1000 to 10000	100 to 1000	–	–	–
Cc1cc(Nc2ncn(-c3cc(F)cc(F)c3)n2)cc(N2CCC(CN3CCOCC3)CC2)c1 [Compound 984, 1-(3,5-difluorophenyl)-N-[3-methyl-5-[4-(morpholinomethyl)-1-piperidyl]phenyl]-1,2,4-triazol-3-amine]	–	–	–	–	fold induction at 1 µM [1]: 10 to 100; fold induction at 10 µM [1]: ≤ 1
Fc1cccc(-n2cnc(Nc3cc(C(F)F)cc(N4CCN(C5COC5)CC4)n3)n2)c1 [Compound 525, 4-(difluoromethyl)-N-[1-(3-fluorophenyl)-1,2,4-triazol-3-yl]-6-[4-(oxetan-3-yl)piperazin-1-yl]pyridin-2-amine]	–	–	100 to 1000	10 to 100	–
Cc1cc(Nc2ncn(-c3cc(F)cc(F)c3)n2)cc(NC2CCN(CC(F)F)CC2)c1 [Compound 992, N1-[1-(2,2-difluoroethyl)-4-piperidyl]-N3-[1-(3,5-difluorophenyl)-1,2,4-triazol-3-yl]-5-methyl-benzene-1,3-diamine]	–	–	–	–	fold induction at 1 µM [1]: 1 to 10; fold induction at 10 µM [1]: 1 to 10
N#Cc1cc(Nc2ncn(-c3ccccc3)n2)cc(N2CCN(C3COC3)CC2)c1 [Compound 592, 3-[4-(oxetan-3-yl)piperazin-1-yl]-5-[(1-phenyl-1,2,4-triazol-3-yl)amino]benzonitrile]	–	–	1 to 10	≤ 1	–
Cc1cc(Nc2ncn(-c3ccccc3)n2)cc(C2CCN(C3COC3)CC2)c1 [Compound 71, N-[3-methyl-5-[1-(oxetan-3-yl)-4-piperidyl]phenyl]-1-phenyl-1,2,4-triazol-3-amine]	1000 to 10000	≤ 1	–	–	–
Fc1cc(F)cc(-n2cnc(Nc3cc(C4CC4)cc(N4CCN(C5COC5)CC4)c3)n2)c1 [Compound 389, N-(3-cyclopropyl-5-(4-(oxetan-3-yl)piperazin-1-yl)phenyl)-1-(3,5-difluorophenyl)-1H-1,2,4-triazol-3-amine]	–	–	1000 to 10000	≤ 1	–
CC(C)Oc1cc(F)cc(-n2cnc(Nc3cc(C4CC4)cc(N4CCN(C5COC5)CC4)c3)n2)c1 [Compound 285, N-[3-cyclopropyl-5-[4-(oxetan-3-yl)piperazin-1-yl]phenyl]-1-(3-fluoro-5-isopropoxy-phenyl)-1,2,4-triazol-3-amine]	1 to 10	10 to 100	–	–	–
CC(=O)N1CCC(Oc2cc(C)cc(Nc3ncn(-c4ccc(F)c(F)c4)n3)c2)CC1 [Compound 626, 1-[4-[3-[[1-(3,4-difluorophenyl)-1,2,4-triazol-3-yl]amino]-5-methyl-phenoxy]-1-piperidyl]ethanone]	–	–	10 to 100	≤ 1	–
Cc1cc(Nc2ncn(-c3cc(F)cc(F)c3)n2)cc(N2CCC(OCCN3CCCC3)CC2)c1 [Compound 1074, 1-(3,5-difluorophenyl)-N-[3-methyl-5-[4-(2-pyrrolidin-1-ylethoxy)-1-piperidyl]phenyl]-1,2,4-triazol-3-amine]	–	–	–	–	fold induction at 1 µM [1]: 1 to 10; fold induction at 10 µM [1]: ≤ 1
Cc1cc(Nc2ncn(-c3ccccc3Cl)n2)cc(N2CCN(C)CC2)c1 [Compound 428, 1-(2-chlorophenyl)-N-[3-methyl-5-(4-methylpiperazin-1-yl)phenyl]-1,2,4-triazol-3-amine]	–	–	1 to 10	10 to 100	–
Cc1cc(Nc2ncn(-c3cc(F)cc(F)c3)n2)cc(OCC2(C)COC2)c1 [Compound 677, 1-(3,5-difluorophenyl)-N-[3-methyl-5-[(3-methyloxetan-3-yl)methoxy]phenyl]-1,2,4-triazol-3-amine]	–	–	100 to 1000	≤ 1	–
Cc1cc(Nc2ncn(-c3cccc(C(F)F)c3)n2)nc(NC2CCOC2)c1 (stereo not drawn) [Compound 689, N6-[1-[3-(difluoromethyl)phenyl]-1,2,4-triazol-3-yl]-4-methyl-N2-tetrahydrofuran-3-yl-pyridine-2,6-diamine]	–	–	1 to 10	1 to 10	–
Cc1cc(Nc2ncn(-c3ccc(F)cc3)n2)cc(N2CCCC2)c1 [Compound 269, 1-(4-fluorophenyl)-N-(3-methyl-5-pyrrolidin-1-yl-phenyl)-1,2,4-triazol-3-amine]	1 to 10	10 to 100	–	–	–
Cc1cc(Nc2ncn(-c3cc(F)cc(F)c3)n2)cc(OCCn2cccn2)c1 [Compound 832, 1-(3,5-difluorophenyl)-N-[3-methyl-5-(2-pyrazol-1-ylethoxy)phenyl]-1,2,4-triazol-3-amine]	–	–	–	–	fold induction at 1 µM [1]: 10 to 100; fold induction at 10 µM [1]: 10 to 100
Fc1ccccc1-n1cnc(Nc2cc(C3CC3)cc(N3CCN(C4COC4)CC3)c2)n1 [Compound 225, N-[3-cyclopropyl-5-[4-(oxetan-3-yl)piperazin-1-yl]phenyl]-1-(2-fluorophenyl)-1,2,4-triazol-3-amine]	100 to 1000	100 to 1000	–	–	–
Clc1cc(Nc2ncn(-c3ccccc3)n2)cc(N2CCOCC2)c1 [Compound 335, N-(3-chloro-5-morpholino-phenyl)-1-phenyl-1,2,4-triazol-3-amine]	1000 to 10000	10 to 100	–	–	–
Cc1cc(Nc2ncn(-c3cc(F)cc(F)c3)n2)cc(OCCN2CCOCC2)c1 [Compound 812, 1-(3,5-difluorophenyl)-N-[3-methyl-5-(2-morpholinoethoxy)phenyl]-1,2,4-triazol-3-amine]	–	–	–	–	fold induction at 1 µM [1]: 10 to 100; fold induction at 10 µM [1]: 10 to 100
Cc1cc(Nc2ncn(-c3cc(F)cc(F)c3)n2)cc(N2CC(N3CCCOCC3)C2)c1 [Compound 808, 1-(3,5-difluorophenyl)-N-[3-methyl-5-[3-(1,4-oxazepan-4-yl)azetidin-1-yl]phenyl]-1,2,4-triazol-3-amine]	–	–	–	–	fold induction at 1 µM [1]: 10 to 100; fold induction at 10 µM [1]: ≤ 1
Cc1cc(Nc2ncn(-c3ccccc3)n2)cc(NC2CCN(C3COC3)CC2)c1 [Compound 334, 5-methyl-N1-[1-(oxetan-3-yl)-4-piperidyl]-N3-(1-phenyl-1,2,4-triazol-3-yl)benzene-1,3-diamine]	100 to 1000	1000 to 10000	–	–	–
Fc1cc(F)cc(-n2cnc(Nc3cc(C(F)F)cc(N4CCN(C5COC5)CC4)c3)n2)c1 [Compound 82, N-[3-(difluoromethyl)-5-[4-(oxetan-3-yl)piperazin-1-yl]phenyl]-1-(3,5-difluorophenyl)-1,2,4-triazol-3-amine]	1000 to 10000	100 to 1000	–	–	–
Fc1cc(F)cc(-n2cnc(Nc3cc(N4CCN(C5COC5)CC4)cc(C(F)(F)F)c3)n2)c1 [Compound 130, 1-(3,5-difluorophenyl)-N-[3-[4-(oxetan-3-yl)piperazin-1-yl]-5-(trifluoromethyl)phenyl]-1,2,4-triazol-3-amine]	1000 to 10000	100 to 1000	–	–	–
Cc1cc(Nc2ncn(-c3ccccn3)n2)nc(N2CC(N3CCOCC3)C2)c1 [Compound 503, 4-methyl-6-(3-morpholinoazetidin-1-yl)-N-[1-(2-pyridyl)-1,2,4-triazol-3-yl]pyridin-2-amine]	–	–	1 to 10	≤ 1	–
Cc1cc(Nc2ncn(-c3cc(F)cc(F)c3)n2)cc(N2CCC(N3CCOCC3)C2)c1 (stereo not drawn) [Compound 284, 1-(3,5-difluorophenyl)-N-[3-methyl-5-(3-morpholinopyrrolidin-1-yl)phenyl]-1,2,4-triazol-3-amine]	1 to 10	1 to 10	–	–	–
Cc1cc(Nc2ncn(-c3ccc(F)c(F)c3)n2)c(F)c(N2CCN(C3COC3)CC2)c1 [Compound 998, 1-(3,4-difluorophenyl)-N-[2-fluoro-5-methyl-3-[4-(oxetan-3-yl)piperazin-1-yl]phenyl]-1,2,4-triazol-3-amine]	–	–	–	–	fold induction at 1 µM [1]: 10 to 100; fold induction at 10 µM [1]: 1 to 10
CC(C)(C)c1cc(Nc2ncn(-c3cncnc3)n2)cc(N2CCN(C3COC3)CC2)c1 [Compound 550, N-[3-tert-butyl-5-[4-(oxetan-3-yl)piperazin-1-yl]phenyl]-1-pyrimidin-5-yl-1,2,4-triazol-3-amine]	–	–	10 to 100	10 to 100	–
CCc1cc(Nc2ncn(-c3ccc(F)c(F)c3)n2)cc(N2CCN(C3COC3)CC2)c1 [Compound 69, 1-(3,4-difluorophenyl)-N-[3-ethyl-5-[4-(oxetan-3-yl)piperazin-1-yl]phenyl]-1,2,4-triazol-3-amine]	1000 to 10000	10 to 100	–	–	–
